The results in this text go back to patent publication US20240116985A1, “STAPLED PEPTIDES AND METHODS THEREOF” (priority 2020, published 2024).

pIC50: −log10 of the molar value. ≈ marks a conversion by molar mass, not a printed value. Where two headings read alike, the source gives them in different places.

One series in a line: Solubility in PBS. The class given is physicochemical. The method, boiled down:
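The PBS solution was ultracentrifuged and the supernatant analyzed by HPLC. Its peak area was divided by that of a 50 μM peptide DMSO reference injection and multiplied by 50 uM to give solubility.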

The nature of another series: CHI Log D procedure. Type of series: physicochemical. To be noted: pH 7.4.
Series [1] has as its target T1, full-length beta-Catenin (Uniprot ID P35222) (Homo sapiens, UniProt P35222).
T1 construct: 10 nM full-length beta-Catenin (Uniprot ID P35222)
T1 sequence (P35222 1-781): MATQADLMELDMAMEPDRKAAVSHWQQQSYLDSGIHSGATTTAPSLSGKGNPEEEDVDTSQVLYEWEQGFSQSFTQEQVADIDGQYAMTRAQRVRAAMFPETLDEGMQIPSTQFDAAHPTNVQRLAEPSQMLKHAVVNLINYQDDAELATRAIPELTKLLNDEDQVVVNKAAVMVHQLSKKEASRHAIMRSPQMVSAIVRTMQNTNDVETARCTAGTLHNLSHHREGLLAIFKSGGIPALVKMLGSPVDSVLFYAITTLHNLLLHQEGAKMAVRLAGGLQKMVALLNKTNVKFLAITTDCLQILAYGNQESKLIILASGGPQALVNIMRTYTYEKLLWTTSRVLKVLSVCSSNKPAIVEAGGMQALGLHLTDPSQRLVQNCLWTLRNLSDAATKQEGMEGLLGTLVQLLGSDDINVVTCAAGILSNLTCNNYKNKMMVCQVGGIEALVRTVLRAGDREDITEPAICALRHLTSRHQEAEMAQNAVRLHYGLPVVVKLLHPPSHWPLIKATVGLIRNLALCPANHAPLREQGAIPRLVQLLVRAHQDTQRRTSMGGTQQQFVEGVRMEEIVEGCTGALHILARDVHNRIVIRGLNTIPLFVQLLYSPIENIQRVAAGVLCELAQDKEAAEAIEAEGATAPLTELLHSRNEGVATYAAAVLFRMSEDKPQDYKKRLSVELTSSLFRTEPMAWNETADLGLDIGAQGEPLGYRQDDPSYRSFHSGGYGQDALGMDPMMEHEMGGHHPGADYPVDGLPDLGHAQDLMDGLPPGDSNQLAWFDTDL
Description: Fluorescence polarization IC50 (beta-catenin / 5FAM-TCF4 10-53 competition). Type of series: binding.

Where [2] appears, read: fluorescence polarization, beta-catenin, read-out: FP EC50.

As a reminder, the Solubility is how much of the substance goes into solution per volume. A lower Solubility goes with little dissolved substance. For the compound `CCN(CC(=O)O)C[C@@H]1NC(=O)[C@H](CC(=O)O)NC(=O)C2(CCCC=CCCCOC(=O)N3CC[C@@](C(=O)N[C@@H](Cc4ccsc4)C(=O)N[C@@H](Cc4csc5ccccc45)C(=O)N[C@@H](CCC(N)=O)C(N)=O)(C3)NC(=O)[C@H](CO)NC(=O)[C@H](Cc3ccccc3)NC(=O)[C@H](C)NC(=O)[C@H](C)NC1=O)CCCC=CC[C@]1(CCCN1C(C)=O)C(=O)N[C@@H](CC(=O)O)C(=O)N[C@@H](CC(C)(C)C)C(=O)N2` (stereo partly drawn) [I-967, Ac-PL3-Asp-Npg-B5-Asp-EtGA-Ala-Ala-Phe-Ser-PyrS2-3Thi-BztA-Gln-NH2], the “Solubility” value in “Solubility in PBS” was determined as 45 µM (≈ 87.7 µg/mL). Moreover, in “CHI Log D procedure”, the “CHI Log D” value is on record as 1.884. In addition, the pIC50 in series [1] (setting [2]) and in series [1] (read-out: beta-Catenin FP IC50) was 5.76 each time.
Consider `CCN(CC(=O)O)C[C@@H]1NC(=O)[C@H](CC(=O)O)NC(=O)C2(CCCC=CCCCOC(=O)N3CC[C@@](C(=O)N[C@@H](Cc4ccsc4)C(=O)N[C@@H](Cc4csc5ccccc45)C(=O)N[C@@H](CCC(N)=O)C(N)=O)(C3)NC(=O)[C@H]([C@@H](C)O)NC(=O)[C@H](Cc3ccccc3)NC(=O)[C@H](C)NC(=O)[C@H](C)NC1=O)CCCC=CC[C@]1(CCCN1C(C)=O)C(=O)N[C@@H](CC(=O)O)C(=O)N[C@@H](CC(C)(C)C)C(=O)N2` (stereo partly drawn) [I-968, Ac-PL3-Asp-Npg-B5-Asp-EtGA-Ala-Ala-Phe-Thr-PyrS2-3Thi-BztA-Gln-NH2], for which the “Solubility” value in “Solubility in PBS” was 30 µM (≈ 58.9 µg/mL). In addition, the “CHI Log D” value in the series “CHI Log D procedure” was 1.752. Further, the pIC50 in series [1] (setting [2]) and in series [1] (read-out: beta-Catenin FP IC50) was 5.53 in each case.
With `CCN(CC(=O)O)C[C@@H]1NC(=O)[C@H](CC(=O)O)NC(=O)C2(CCCC=CCCCOC(=O)N3CC[C@@](C(=O)N[C@@H](Cc4ccsc4)C(=O)N[C@@H](Cc4csc5ccccc45)C(=O)N[C@@H](CCC(N)=O)C(N)=O)(C3)NC(=O)[C@H]([C@@H](C)O)NC(=O)[C@H](Cc3ccccc3)NC(=O)[C@H](C)NC(=O)[C@H](C)NC1=O)CCCC=CC[C@]1(CCCN1C(C)=O)C(=O)N[C@@H](CC(=O)O)C(=O)N[C@@H](CC(C)(C)C)C(=O)N2` (stereo partly drawn) [I-969, Ac-PL3-Asp-Npg-B5-Asp-EtGA-Ala-Ala-Phe-Thr-PyrS2-3Thi-BztA-Gln-NH2], the “Solubility” value in “Solubility in PBS” came to 46 µM (≈ 90.3 µg/mL). Further, in the series “CHI Log D procedure”, the “CHI Log D” value was found to be 1.851. Besides, the pIC50 in series [1] (setting [2]) and in series [1] (read-out: beta-Catenin FP IC50) was 5.63 each time.
For `CCN(CC(=O)O)C[C@@H]1NC(=O)[C@H](CC(=O)O)NC(=O)C2(CCCC=CCCCOC(=O)N3CC[C@@](C(=O)N[C@@H](Cc4ccsc4)C(=O)N[C@@H](Cc4csc5ccccc45)C(=O)N[C@@H](CCC(N)=O)C(N)=O)(C3)NC(=O)[C@H](Cc3ccccc3)NC(=O)[C@H](Cc3ccccc3)NC(=O)[C@H](C)NC(=O)[C@H](C)NC1=O)CCCC=CC[C@]1(CCCN1C(C)=O)C(=O)N[C@@H](CC(=O)O)C(=O)N[C@@H](CC(C)(C)C)C(=O)N2` (stereo partly drawn) [I-971, Ac-PL3-Asp-Npg-B5-Asp-EtGA-Ala-Ala-Phe-Phe-PyrS2-3Thi-BztA-Gln-NH2], the “Solubility” value in “Solubility in PBS” was 10 µM (≈ 20.1 µg/mL). Also, the “CHI Log D” value in “CHI Log D procedure” was 1.939. The figures for the pIC50 in series [1] (setting [2]) and in series [1] (read-out: beta-Catenin FP IC50) were 5.79 and 5.73, respectively.
For the compound `CCN(CC(=O)O)C[C@@H]1NC(=O)[C@H](CC(=O)O)NC(=O)C2(CCCC=CCCCOC(=O)N3CC[C@@](C(=O)N[C@@H](Cc4ccsc4)C(=O)N[C@@H](Cc4csc5ccccc45)C(=O)N[C@@H](CCC(N)=O)C(N)=O)(C3)NC(=O)[C@H](CC(C)C)NC(=O)[C@H](Cc3ccccc3)NC(=O)[C@H](C)NC(=O)[C@H](C)NC1=O)CCCC=CC[C@]1(CCCN1C(C)=O)C(=O)N[C@@H](CC(=O)O)C(=O)N[C@@H](CC(C)(C)C)C(=O)N2` (stereo partly drawn) [I-972, Ac-PL3-Asp-Npg-B5-Asp-EtGA-Ala-Ala-Phe-Leu-PyrS2-3Thi-BztA-Gln-NH2], the “Solubility” value in the series “Solubility in PBS” was 30 µM (≈ 59.2 µg/mL). For the same compound, in the series “CHI Log D procedure”, the “CHI Log D” value worked out at 1.879. Also, the pIC50 in series [1] (setting [2]) and in series [1] (read-out: beta-Catenin FP IC50) was 5.74 throughout.
As to `CCN(CC(=O)O)C[C@@H]1NC(=O)[C@H](CC(=O)O)NC(=O)C2(CCCC=CCCCOC(=O)N3CC[C@@](C(=O)N[C@@H](Cc4ccsc4)C(=O)N[C@@H](Cc4csc5ccccc45)C(=O)N[C@@H](CO)C(N)=O)(C3)NC(=O)[C@H](CO)NC(=O)[C@H](Cc3ccccc3)NC(=O)[C@H](C)NC(=O)[C@H](C)NC1=O)CCCC=CC[C@]1(CCCN1C(C)=O)C(=O)N[C@@H](CC(=O)O)C(=O)N[C@@H](CC(C)(C)C)C(=O)N2` (stereo partly drawn) [I-974, Ac-PL3-Asp-Npg-B5-Asp-EtGA-Ala-Ala-Phe-Ser-PyrS2-3Thi-BztA-Ser-NH2], the “Solubility” value in “Solubility in PBS” was 10 µM (≈ 19.1 µg/mL). In addition, the “CHI Log D” value in “CHI Log D procedure” was 1.857. For the same compound, the pIC50 in series [1] (setting [2]) and in series [1] (read-out: beta-Catenin FP IC50) was 5.75 throughout.
Take `CCN(CC(=O)O)C[C@@H]1NC(=O)[C@H](CC(=O)O)NC(=O)C2(CCCC=CCCCOC(=O)N3CC[C@@](C(=O)N[C@@H](Cc4ccsc4)C(=O)N[C@@H](Cc4csc5ccccc45)C(=O)N[C@@H](CO)C(N)=O)(C3)NC(=O)[C@H](CO)NC(=O)[C@H](Cc3ccccc3)NC(=O)[C@H](C)NC(=O)[C@H](C)NC1=O)CCCC=CC[C@]1(CCCN1C(C)=O)C(=O)N[C@@H](CC(=O)O)C(=O)N[C@@H](CC(C)(C)C)C(=O)N2` (stereo partly drawn) [I-975, Ac-PL3-Asp-Npg-B5-Asp-EtGA-Ala-Ala-Phe-Ser-PyrS2-3Thi-BztA-Ser-NH2]: the “Solubility” value in the series “Solubility in PBS” amounted to 46 µM (≈ 87.7 µg/mL). In the series “CHI Log D procedure”, the “CHI Log D” value amounted to 1.952. Besides, the pIC50 in series [1] (setting [2]) was 5.77; in series [1] (read-out: beta-Catenin FP IC50), 5.65.
For the compound `CC(=O)N1CCC[C@]12CC=CCCCC1(CCCC=CCCCOC(=O)N3CC[C@@](C(=O)N[C@@H](Cc4ccsc4)C(=O)N[C@@H](Cc4csc5ccccc45)C(=O)N[C@@H](CCC(N)=O)C(N)=O)(C3)NC(=O)[C@H](CC(N)=O)NC(=O)[C@H](Cc3ccccc3)NC(=O)[C@H](C)NC(=O)[C@H](C)NC(=O)[C@H](Cc3cccc(C(=O)O)c3)NC(=O)[C@H](CC(=O)O)NC1=O)NC(=O)[C@H](CC(C)(C)C)NC(=O)[C@H](CC(=O)O)NC2=O` (stereo partly drawn) [I-976, Ac-PL3-Asp-Npg-B5-Asp-3COOHF-Ala-Ala-Phe-Asn-PyrS2-3Thi-BztA-Gln-NH2], the “Solubility” value in the series “Solubility in PBS” was 50 µM (≈ 99.7 µg/mL). Further, the “CHI Log D” value in “CHI Log D procedure” worked out at 1.78. Further, the pIC50 in series [1] (setting [2]) and in series [1] (read-out: beta-Catenin FP IC50) was 6.40 in each case.
`CC(=O)N1CCC[C@]12CC=CCCCC1(CCCC=CCCCOC(=O)N3CC[C@@](C(=O)N[C@@H](Cc4ccsc4)C(=O)N[C@@H](Cc4csc5ccccc45)C(=O)N[C@@H](CCC(N)=O)C(N)=O)(C3)NC(=O)[C@H](CC(N)=O)NC(=O)[C@H](Cc3ccccc3)NC(=O)[C@H](C)NC(=O)[C@H](C)NC(=O)[C@H](Cc3cccc(C(=O)O)c3)NC(=O)[C@H](CC(=O)O)NC1=O)NC(=O)[C@H](CC(C)(C)C)NC(=O)[C@H](CC(=O)O)NC2=O` (stereo partly drawn) [I-977, Ac-PL3-Asp-Npg-B5-Asp-3COOHF-Ala-Ala-Phe-Asn-PyrS2-3Thi-BztA-Gln-NH2]: the “Solubility” value in the series “Solubility in PBS” came to 46 µM (≈ 91.7 µg/mL). The “CHI Log D” value in “CHI Log D procedure” is 1.87. In addition, the pIC50 in series [1] (setting [2]) is 6.44; in series [1] (read-out: beta-Catenin FP IC50), 6.06.
In the case of `CC(=O)N1CCC[C@]12CC=CCCCC1(CCCC=CCCCOC(=O)N3CC[C@@](C(=O)N[C@@H](Cc4ccsc4)C(=O)N[C@@H](Cc4csc5ccccc45)C(=O)N[C@@H](CCC(N)=O)C(N)=O)(C3)NC(=O)[C@H]([C@@H](C)O)NC(=O)[C@H](Cc3ccccc3)NC(=O)[C@H](C)NC(=O)[C@H](C)NC(=O)[C@H](Cc3cccc(C(=O)O)c3)NC(=O)[C@H](CC(=O)O)NC1=O)NC(=O)[C@H](CC(C)(C)C)NC(=O)[C@H](CC(=O)O)NC2=O` (stereo partly drawn) [I-980, Ac-PL3-Asp-Npg-B5-Asp-3COOHF-Ala-Ala-Phe-Thr-PyrS2-3Thi-BztA-Gln-NH2], the “Solubility” value in “Solubility in PBS” amounted to 19 µM (≈ 37.6 µg/mL). Besides, the “CHI Log D” value in “CHI Log D procedure” is 1.695. For the same compound, the pIC50 in series [1] (setting [2]) and in series [1] (read-out: beta-Catenin FP IC50) was 6.66 throughout.
For `CC(=O)N1CCC[C@]12CC=CCCCC1(CCCC=CCCCOC(=O)N3CC[C@@](C(=O)N[C@@H](Cc4ccsc4)C(=O)N[C@@H](Cc4csc5ccccc45)C(=O)N[C@@H](CCC(N)=O)C(N)=O)(C3)NC(=O)[C@H]([C@@H](C)O)NC(=O)[C@H](Cc3ccccc3)NC(=O)[C@H](C)NC(=O)[C@H](C)NC(=O)[C@H](Cc3cccc(C(=O)O)c3)NC(=O)[C@H](CC(=O)O)NC1=O)NC(=O)[C@H](CC(C)(C)C)NC(=O)[C@H](CC(=O)O)NC2=O` (stereo partly drawn) [I-981, Ac-PL3-Asp-Npg-B5-Asp-3COOHF-Ala-Ala-Phe-Thr-PyrS2-3Thi-BztA-Gln-NH2], in “Solubility in PBS”, the “Solubility” value was found to be 45 µM (≈ 89.2 µg/mL). In addition, the “CHI Log D” value in the series “CHI Log D procedure” is listed as 1.761. Further, the pIC50 is 6.70 in series [1] (setting [2]) and 6.43 in series [1] (read-out: beta-Catenin FP IC50).
